Results from patent US10975083B2, “Blood-brain barrier-penetrant dopamine-β-hydroxylase inhibitors” (BIAL—PORTELA & Cᵃ, S.A., priority 2016, dated 2021).
Like-named read-outs stand apart in the source and are kept apart here.

Experiments:
DβH = target: T1, DβH (Homo sapiens, UniProt P09172); assay: DβH inhibition cell assay (SK-N-SH cellular homogenates, tyramine to octopamine); format: biochemical; settings: for remaining activity at 0.1 µM: read-out: DβH activity in % of Ctrl (0.1 μM); for remaining activity at 1 µM: read-out: DβH activity in % of Ctrl (1 μM); for remaining activity at 10 µM: inhibitor 10 μM, read-out: DβH activity in % of Ctrl (10 μM)
T1 construct: reaction mixture (total volume 500 μl) contained: cellular homogenate (75 μg total protein); host or cells: SK-N-SH cell homogenate
T1 sequence (P09172 1-617): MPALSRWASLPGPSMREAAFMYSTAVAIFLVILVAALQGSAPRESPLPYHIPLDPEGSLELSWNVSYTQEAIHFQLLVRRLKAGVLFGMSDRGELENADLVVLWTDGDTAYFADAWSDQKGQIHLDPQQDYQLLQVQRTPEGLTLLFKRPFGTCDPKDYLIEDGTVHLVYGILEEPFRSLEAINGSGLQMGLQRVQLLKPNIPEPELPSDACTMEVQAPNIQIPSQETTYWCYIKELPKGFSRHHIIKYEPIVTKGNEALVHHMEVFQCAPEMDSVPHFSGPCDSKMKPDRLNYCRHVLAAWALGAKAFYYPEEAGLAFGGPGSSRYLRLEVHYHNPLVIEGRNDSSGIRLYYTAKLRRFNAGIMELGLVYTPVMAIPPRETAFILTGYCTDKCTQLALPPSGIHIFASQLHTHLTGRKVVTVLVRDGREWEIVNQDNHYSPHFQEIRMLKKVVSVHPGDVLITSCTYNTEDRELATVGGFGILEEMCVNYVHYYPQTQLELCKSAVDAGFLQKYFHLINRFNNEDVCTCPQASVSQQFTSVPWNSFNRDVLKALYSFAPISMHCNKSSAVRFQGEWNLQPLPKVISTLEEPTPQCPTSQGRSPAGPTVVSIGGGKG

in vitro = settings: dog, MDCK, pH 7.4
[1] = inhibitor 0.1 μM, SK-N-SH cell homogenate
[2] = inhibitor 1 μM, SK-N-SH cell homogenate

SMILES | remaining activity at 0.1 µM (DβH; [1]) [%] | remaining activity at 1 µM (DβH; [2]) [%] | Papp A→B at 30 min, 50 μM (in vitro) [×10⁻⁶ cm/s] | remaining activity at 10 µM (DβH; SK-N-SH cell homogenate) [%] | remaining activity at 0.1 µM (DβH) [%] | remaining activity at 1 µM (DβH) [%]
Fc1cc(F)cc([C@H]2Cc3c[nH]c(=S)n3C2)c1 [Example 58, (R)-6-(3,5-difluorophenyl)-6,7-dihydro-2H-pyrrolo[1,2-c]imidazole-3(5H)-thione] |  |  | 126 |  | 106 | 59.8
NC(=S)N1CC[C@@H](c2cc(F)cc(F)c2)C1 [Example 25, (S)-3-(3,5-difluorophenyl)pyrrolidine-1-carbothioamide] | 46.1 | 6.7 | 100 |  |  | 
NC(=S)N1CCC(c2ccccc2)C1 (stereo not shown) [Example 1, 3-Phenylpyrrolidine-1-carbothioamide] | 75.6 | 42.4 | 63.1 | 4 |  | 
Fc1cc(F)cc(C23CC2c2c[nH]c(=S)n2C3)c1 (stereo not shown) [Example 53, 5a-(3,5-difluorophenyl)-5,5a,6,6a-tetrahydrocyclopropa[3,4]pyrrolo[1,2-c]imidazole-3(2H)-thione] |  |  | 25.1 |  | 66.5 | 11.8
NC(=S)N1CCC(c2ccsc2)C1 (stereo not shown) [Example 15, 3-(thiophen-3-yl)pyrrolidine-1-carbothioamide] | 50.1 | 9.3 | 79.4 |  |  | 
Fc1ccc(C2Cc3c[nH]c(=S)n3C2)c(F)c1 (stereo not shown) [Example 51, 6-(2,4-Difluorophenyl)-6,7-dihydro-2H-pyrrolo[1,2-c]imidazole-3(5H)-thione] |  |  | 100 |  |  | 54.4
NC(=S)N1CCC(c2c(F)c(F)cc(F)c2F)C1 (stereo not shown) [Example 23, 3-(2,3,5,6-Tetrafluorophenyl)pyrrolidine-1-carbothioamide] | 5.9 | 0 | 100 |  |  | 

Further lines, with some results ahead:

remaining activity at 0.1 µM (DβH; [1]) [%] | remaining activity at 1 µM (DβH; [2]) [%] | Papp A→B at 30 min, 50 μM (in vitro) [×10⁻⁶ cm/s] | remaining activity at 10 µM (DβH; SK-N-SH cell homogenate) [%] | SMILES | remaining activity at 0.1 µM (DβH) [%] | remaining activity at 1 µM (DβH) [%]
100 | 27.8 | 251 |  | Fc1cc(F)cc([C@@H]2Cc3c[nH]c(=S)n3C2)c1 [Example 59, (S)-6-(3,5-difluorophenyl)-6,7-dihydro-2H-pyrrolo[1,2-c]imidazole-3(5H)-thione] |  | 
61 | 0.4 | 79.4 |  | Fc1ccc(F)c(C23CC2c2c[nH]c(=S)n2C3)c1 (stereo not shown) [Example 55, 5a-(2,5-difluorophenyl)-5,5a,6,6a-tetrahydrocyclopropa[3,4]pyrrolo[1,2-c]imidazole-3(2H)-thione] |  | 
43.6 | 0 | 200 |  | CNC(=S)N1CC2(c3cc(F)cc(F)c3)CC2C1=O (stereo not shown) [Example 43, 1-(3,5-Difluorophenyl)-N-methyl-4-oxo-3-azabicyclo[3.1.0]hexane-3-carbothioamide] |  | 
89.3 | 36.6 | 126 | 6.8 | Fc1cc(F)cc(C2Cc3c[nH]c(=S)n3C2)c1 (stereo not shown) [Example 50, 6-(3,5-difluorophenyl)-6,7-dihydro-2H-pyrrolo[1,2-c]imidazole-3(5H)-thione] |  | 
 | 27.3 | 100 |  | Fc1ccc(F)c(C2Cc3c[nH]c(=S)n3C2)c1 (stereo not shown) [Example 52, 6-(2,5-difluorophenyl)-6,7-dihydro-2H-pyrrolo[1,2-c]imidazole-3(5H)-thione] |  | 
3.3 | 0 | 79.4 |  | NC(=S)N1CC2CC2(c2cc(F)ccc2F)C1 (stereo not shown) [Example 38, 1-(2,5-difluorophenyl)-3-azabicyclo[3.1.0]hexane-3-carbothioamide] |  | 
97.9 | 58.6 | 63.1 | 9.2 | Fc1ccc(F)c([C@@]23C[C@@H]2c2c[nH]c(=S)n2C3)c1 [Example 57, (5aR,6aS)-5a-(2,5-difluorophenyl)-5,5a,6,6a-tetrahydrocyclopropa[3,4]pyrrolo[1,2-c]imidazole-3(2H)-thione] |  | 
